Entries after “also recorded” stand apart in the source; their conditions may differ.
How the values were obtained:
DLBCL patients = assay: Phase I trial in DLBCL patients: glucocorticoid cohorts, dose-limiting toxicities (DLT); assay type: in vivo, human; conditions: for Safety assessment of cohort: DLBCL cohorts, antibody 5/15/60 μg/m2/d with glucocorticoid medication
Method: A Phase I clinical trial was performed in patients with various B-NHL including DLBCL to evaluate the CD19×CD3 bispecific antibody construct in DLBCL patients. Patients were treated for 4-8-weeks by continuous i.v. administration of the antibody with the following step-wise dosing regimen: first week at 5 μg/m^2/d, second week at 15 μg/m^2/d and for the remaining treatment period at 60 μg/m^2/d.
Two cohorts each with 6 DLBCL patients were enrolled. The two cohorts solely differed by the dose and schedule of the glucocorticoid medication administered at the beginning of the antibody infusion for mitigation of adverse events.
Out of the twelve patients, 5 were male and 7 female. The median age was 57 years (range from 24 to 78 years). Patients had received a median of 4 prior regimens (range from 2-6). All patients had been exposed to rituximab. Eight of the 12 patients had undergone ASCT. International prognostic index (IPI) at screening ranged from 1 to 3 with a median of 2.

[1] = cited from earlier work
[2] = tested on: patients treated with blinatumomab; assay: Dexamethasone prophylaxis to prevent neurological adverse events during blinatumomab treatment; assay type: in vivo, human; conditions: Patient 108-010, trial 103-104, DLBCL; as other patients (20 mg dexamethasone 12 h and 1 h before) plus 100 mg prednisolone one hour before start of infusion
Method: Besides the therapeutic use of dexamethasone to mitigate neurological adverse events, dexamethasone was also used as prophylaxis in order to prevent neurological adverse events.
(§1) Each of the following 5 patients in trial 103-104 (all with DLBCL) were treated with blinatumomab continuous infusion at 5 μg/m2/d for the 1st week, then 15 μg/m2/d for the 2nd week, and then 60 μg/m2/d for the remaining treatment period that could an additional 2-6 weeks.

patients with B-NHL = assay: Neurological/psychiatric adverse events under blinatumomab continuous infusion; assay type: in vivo, human
Method: For the clinical trials in connection with the application of a CD19×CD3 bispecific single chain antibody for the treatment of tumorous mass of lymph node tissue and/or extranodal lymphoma caused by DLBCL, the present inventors had to develop a treatment regime which was efficient and would be well tolerated by most of the patients. To this end, the present inventors applied a step-wise application of a CD19×CD3 bispecific single chain antibody in that 5/15/60 μg/m^2/24 h was administered to patients. […] Also contemplated in the step-wise administration of a CD19×CD3 bispecific single chain antibody is a treatment regime using two of the dosages, such as 5/15 μg/m^2/24 h, 5/60 μg/m^2/24 h, or 15/60 μg/m^2/24 h for the duration of the patient's treatment. The appropriate dosage can be selected by the clinician on the basis of efficacy, tolerability and safety with a minimum of adverse effects in the patient.

[3] = tested on: malignant CD19 positive lymphocytes; assay: Tumour response to blinatumomab in patients given dexamethasone prophylaxis; assay type: in vivo, human
From the text: By “complete response” is intended an absence of clinically detectable disease with normalization of any previously abnormal imaging studies such as radiographic studies. Such a response preferably persists for at least 4 to 8 weeks, sometimes 6 to 8 weeks or more than 8, 10, 12, 14, 16, 18 or 20 weeks or longer, following treatment according to the invention. Alternatively, an improvement in the disease may be categorized as being a partial response.
Detailed remission and response definitions for NHL patients are used according to Cheson et al., 1999, J Clin Oncol. April; 17(4):1244
By “partial response” is intended at least about a 50% decrease in all measurable tumor burden (i.e., the number of malignant cells present in the patient, or the measured bulk of tumor masses) in the absence of new lesions and persisting for 4 to 8 weeks or more than 8, 10, 12, 14, 16, 18 or 20 weeks or longer. A “complete response” does, however, not necessarily indicate that a disease has been cured, since a patient may relapse. However, if so, the patient can again be treated with a composition comprising a CD19×CD3 bispecific antibody as described herein.
as §1

[4] = tested on: patients with B cell malignancies; conditions: cited from earlier work
lymphoma target cells = conditions: cited from earlier work
[5] = non-Hodgkin's lymphoma patients

## C[C@@H]1C[C@H]2[C@@H]3CCC4=CC(=O)C=C[C@]4(C)[C@@]3(F)[C@@H](O)C[C@]2(C)[C@@]1(O)C(=O)CO [Dexamethasone]
DLBCL patients
  Safety assessment of cohort: considered safe
DLBCL patients; prophylactic dexamethasone cohort: 3×8 mg at start of infusion or dose increase, 3×6 mg or 3×4 mg on following 2 days, first two patients
  DLT: one of the first two patients having a DLT
DLBCL patients; “early dexamethasone” schedule: 20 mg at −12 to −6 hours and −1 hour, 3×8 mg during following 2 days, total of 5 DLBCL patients
  DLT: no DLT was observed

## C[C@]12CCC(=O)C=C1CC[C@@H]1[C@@H]2[C@@H](O)C[C@@]2(C)[C@H]1CC[C@]2(O)C(=O)CO [Hydrocortisone]
[1]
  Biologic half-life: 8-12 hrs

## C[C@H]1C[C@@H]2[C@H]([C@@H](O)C[C@@]3(C)[C@H]2CC[C@]3(O)C(=O)CO)[C@@]2(C)C=CC(=O)C=C12 [Methylprednisolone]
[1]
  Biologic half-life: 18-36 hrs

## C[C@]12C=CC(=O)C=C1CC[C@@H]1[C@@H]2[C@@H](O)C[C@@]2(C)[C@H]1CC[C@]2(O)C(=O)CO [Prednisolone]
[2]
  Discontinuation due to neurological/psychiatric adverse events: did not have to discontinue
DLBCL patients
  Safety assessment of cohort: considered safe
DLBCL patients; prednisolone DLBCL cohort: 100 mg prednisolone 1 hour prior to start, antibody 5/15/60 μg/m2/d
  DLT: just one DLT (reversible CNS event grade 3)
[1]
  Biologic half-life: 18-36 hrs

## C[C@]12C=CC(=O)C=C1CC[C@@H]1[C@@H]2C(=O)C[C@@]2(C)[C@H]1CC[C@]2(O)C(=O)CO [Prednisone]
[1]
  Biologic half-life: 18-36 hrs

## Blinatumomab
Patients with B-NHL; DLBCL patients, step-wise 5/15/60 μg/m2/24 h
  Adverse effects, in particular neurological/psychiatric events, with step-wise application: reduced in number, ameliorated and even prevented
Patients with B-NHL; Patient 109-036, follicular lymphoma, starting day 11, four days after step from 5 to 60 μg/m2/d
  Neurological adverse events: neurological adverse events (tremor and apraxia)
Patients with B-NHL; Patient 109-038, DLBCL, 5/15/60 μg/m2/d, day 15
  Neurological adverse events: developed intention tremor
Patients with B-NHL; Patient 109-039, MCL, 5/15/60 μg/m2/d, day 17
  Neurological adverse events: developed tremor and slight speech disturbance
Patients with B-NHL; Patient 135-001, DLBCL, day 4 after step to 60 μg/m2/d, too fast to intervene with dexamethasone
  Treatment stop due to neurological/psychiatric adverse events: had to stop due to neurological/psychiatric adverse events
Patients with B-NHL; Patient 153-002, MCL, 5/15/60 μg/m2/d, day 4
  Neurological adverse events: developed slight speech problems
Patients with B-NHL; Patient 153-002, MCL, day 22, paresis disappeared without intervention
  Treatment stop due to neurological adverse event: had to stop treatment due to paresis
[3]; DLBCL patients with “early dexamethasone” schedule, Phase I
  Tumour response: objective responses have been observed
[3]; Patient 155-001, relapsed ALL, blinatumomab 15 μg/m2/d 16 days, dexamethasone prophylaxis 8 mg
  Tumour response: complete remission
[3]; patient with ALL, blinatumomab 15 μg/m2/d, dexamethasone prophylaxis days 1-3
  Tumour response: complete remission
[3]; trial 103-104, DLBCL, blinatumomab 5/15/60 μg/m2/d, 20 mg dexamethasone prophylaxis, one patient per block
  Tumour response of the lymphoma: objective response; also recorded: complete remission
[4]; escalating doses as bolus infusions, B cell malignancies, retrospective analysis
  Patients with early neurological reaction (confusion, ataxia, speech disorder, disorientation): 7 out of 22
[4]; patient with B-CLL, 20 minute-infusions of 3 and 10 microgram, WO 99/54440
  Cytokine release: release of TNF, IL-6 and IL-8 has been found
Lymphoma target cells; continuously administered over four weeks, non-Hodgkin's lymphoma patients
  Dose leading to elimination of lymphoma target cells in blood (doses as low as): 0.005 milligrams per square meter per day
Lymphoma target cells; dose level 0.06 milligrams/m^2/d
  Patients with tumor regression: all seven patients
Lymphoma target cells; [5]
  Dose level at which partial and complete tumor regressions were first observed: 0.015 milligrams/m^2/d
  Tumor cells in bone marrow and liver: clearance of tumor cells from bone marrow and liver

Reference: patent US10130638B2, “Prevention of adverse effects caused by CD3 specific binding domains” (AMGEN RESEARCH (MUNICH) GMBH, priority 2010, dated 2018)
